According to patent US9751881B2, “Inhibitors of the renal outer medullary potassium channel” (Merck Sharp & Dohme Corp., priority 2013, dated 2017):
Where a name gives a salt, the structure may show the parent alone. Read-outs that look alike come from different tables or passages of the source.

Target: hROMK (hKir1.1) (Homo sapiens (Human), UniProt P48048)
Experiment: Thallium Flux Assay (ROMK channel functional thallium flux, FLIPR-Tetra)
Format: cell-based
Settings: read-out: ROMK TI IC50
How it was run: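 HEK293 cells stably expressing hROMK, FluxOR dye-loaded 90 min, then compound 30 min at room temperature. Normalised to 3 μM reference ROMK inhibitor as % fluorescence change.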

[1] = HEK293 cells stably expressing hROMK (hKir1.1), unit not given in Table 4 (IC50 potencies less than 1 μM)

hROMK (hKir1.1), sequence (P48048 whole entry): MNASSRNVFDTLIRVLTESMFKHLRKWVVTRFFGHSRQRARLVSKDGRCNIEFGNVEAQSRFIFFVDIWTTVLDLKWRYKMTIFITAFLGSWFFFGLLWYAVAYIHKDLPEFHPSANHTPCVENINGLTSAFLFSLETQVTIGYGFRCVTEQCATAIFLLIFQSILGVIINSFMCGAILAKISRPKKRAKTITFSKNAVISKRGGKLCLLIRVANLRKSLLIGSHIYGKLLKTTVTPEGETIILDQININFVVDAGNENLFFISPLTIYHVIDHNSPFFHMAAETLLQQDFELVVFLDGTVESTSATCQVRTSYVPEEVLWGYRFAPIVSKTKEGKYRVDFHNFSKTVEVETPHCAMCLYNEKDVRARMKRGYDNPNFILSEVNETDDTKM

Q: `Cc1c([C@@H](O)CN2CCC3(CC2)CN(c2ccc(S(C)(=O)=O)cn2)C(=O)O3)ccc2c1COC2=O` [Example 91, (R)-8-(2-hydroxy-2-(4-methyl-1-oxo-1,3-dihydroisobenzofuran-5-yl)ethyl)-3-(5-(methylsulfonyl)pyridin-2-yl)-1-oxa-3,8-diazaspiro[4.5]decan-2-one] was tested. Which IC50 [1] did it give?
A: 0.208 µM

Q: For `Cc1c([C@@H](O)CN2CCC3(CCN(c4ncc(-n5cnnn5)cn4)CC3)C2)ccc2c1COC2=O` [Example 54, (R)-5-(2-(8-(5-(1H-tetrazol-1-yl)pyrimidin-2-yl)-2,8-diazaspiro[4.5]decan-2-yl)-1-hydroxyethyl)-4-methylisobenzofuran-1(3H)-one], which IC50 [1] is on record?
A: 0.262 µM

Q: `Cc1c(C(O)CN2CCC3(CC2)CCN(c2ncc(C#N)cn2)CC3)ccc2c1COC2=O` (stereo not shown) [Example 109] was tested. Which IC50 [1] did it give?
A: 0.0145 µM

Q: With `Cc1c([C@@H](O)CN2CCC3(CC2)CN(c2cnc(S(C)(=O)=O)cn2)C3)ccc2c1COC2=O` [Example 49, (R)-5-(1-Hydroxy-2-(2-(5-(methylsulfonyl)pyrazin-2-yl)-2,7-diazaspiro[3.5]nonan-7-yl)ethyl)-4-methylisobenzofuran-1(3H)-one] as the compound, how does the IC50 [1] read?
A: 0.118 µM

Q: How did the IC50 [1] turn out when `Cc1c([C@@H](O)CN2CCC3(CC2)CCN(c2ccc(C#N)nn2)C3)ccc2c1COC2=O` [Example 18, (R)-6-(8-(2-Hydroxy-2-(4-methyl-1-oxo-1,3-dihydroisobenzofuran-5-yl)ethyl)-2,8-diazaspiro[4.5]decan-2-yl)pyridazine-3-carbonitrile] was run?
A: 0.156 µM

Q: `Cc1c([C@@H](O)CN2CCC3(CC2)CN(c2ccc(S(C)(=O)=O)cn2)CCO3)ccc2c1COC2=O` [Example 98, (R)-5-(1-Hydroxy-2-(4-(5-(methylsulfonyl)pyridin-2-yl)-1-oxa-4,9-diazaspiro[5.5]undecan-9-yl)ethyl)-4-methylisobenzofuran-1(3H)-one] was tested. Which IC50 [1] did it give?
A: 0.376 µM

Q: With `Cc1c(C(O)CN2CCC3(CC2)CCN(c2cnc(C#N)cn2)CC3)ccc2c1COC2=O` (stereo not shown) [Example 111] as the compound, how does the IC50 [1] read?
A: 0.00962 µM

Q: `Cc1c([C@@H](O)CN2CCC3(CC2)CC(=O)N(c2ccc4c(c2)CCS4(=O)=O)C3)ccc2c1COC2=O` [Example 66, 2-(1,1-Dioxido-2,3-dihydro-1-benzothiophen-5-yl)-8-[(2R)-2-hydroxy-2-(4-methyl-1-oxo-1,3-dihydro-2-benzofuran-5-yl)ethyl]-2,8-diazaspiro[4.5]decan-3-one hydrochloride] was tested. Which IC50 [1] did it give?
A: 0.101 µM

Q: With `Cc1c([C@@H](O)CN2CCC3(CC2)CCN(c2ncc(S(C)(=O)=O)cn2)C3)ccc2c1COC2=O` [Example 41, (R)-5-(1-Hydroxy-2-(2-(5-(methylsulfonyl)pyrimidin-2-yl)-2,8-diazaspiro[4.5]decan-8-yl)ethyl)-4-methylisobenzofuran-1(3H)-one] as the compound, how does the IC50 [1] read?
A: 0.101 µM

Q: For `Cc1c([C@@H](O)CN2CCC3(CC2)CCN(c2cccc(C#N)c2)C3)ccc2c1COC2=O` [Example 89], which IC50 [1] is on record?
A: 0.118 µM

Q: With `Cc1cc(C#N)cnc1N1CCC2(CCN(CC(O)c3ccc4c(c3C)COC4=O)CC2)CC1` (stereo not shown) [Example 108] as the compound, how does the IC50 [1] read?
A: 0.255 µM

Q: With `CC1Cc2cc(C(O)CN3CCC4(CC3)CCN(c3ccc(C#N)cn3)C4)ccc2C(=O)O1` [Example 21, 6-(8-(2-Hydroxy-2-((R)-3-methyl-1-oxoisochroman-6-yl)ethyl)-2,8-diazaspiro[4.5]decan-2-yl)nicotinonitrile] as the compound, how does the IC50 [1] read?
A: 0.0502 µM

Q: With `Cc1c([C@@H](N)CN2CCC3(CC2)CCN(c2ccc(C#N)cn2)C3)ccc2c1COC2=O` [Example 79, (R)-6-(8-(2-amino-2-(4-methyl-1-oxo-1,3-dihydroisobenzofuran-5-yl)ethyl)-2,8-diazaspiro[4.5]decan-2-yl)nicotinonitrile] as the compound, how does the IC50 [1] read?
A: 0.0141 µM

Q: How did the IC50 [1] turn out when `N#Cc1ccc(N2CCC3(CCN(CC(O)c4cc5c(cc4C4CC4)C(=O)OC5)CC3)C2)nc1` (stereo not shown) [Example 25, 6-(8-(2-(6-Cyclopropyl-1-oxo-1,3-dihydroisobenzofuran-5-yl)-2-hydroxyethyl)-2,8-diazaspiro[4.5]decan-2-yl)nicotinonitrile] was run?
A: 0.0744 µM

Q: With `Cc1c([C@@H](O)CN2CCC3(CC2)CCN(c2ccnc(C#N)c2)C3)ccc2c1COC2=O` [Example 60, (R)-4-(8-(2-Hydroxy-2-(4-methyl-1-oxo-1,3-dihydroisobenzofuran-5-yl)ethyl)-2,8-diazaspiro[4.5]decan-2-yl)picolinonitrile] as the compound, how does the IC50 [1] read?
A: 0.0544 µM

Q: `CCS(=O)(=O)c1cnc(N2CC3(CCN(C[C@H](O)c4ccc5c(c4C)COC5=O)CC3)CC2=O)cn1` [Example 68, 2-[5-(Ethylsulfonyl)pyrazin-2-yl]-8-[(2R)-2-hydroxy-2-(4-methyl-1-oxo-1,3-dihydro-2-benzofuran-5-yl)ethyl]-2,8-diazaspiro[4.5]decan-3-one hydrochloride] was tested. Which IC50 [1] did it give?
A: 0.127 µM

Q: `Cc1c([C@@H](O)CN2CCC3(CCCN(c4ccc(S(C)(=O)=O)cn4)C3)CC2)ccc2c1COC2=O` [Example 61, (R)-5-(1-hydroxy-2-(2-(5-(methylsulfonyl)pyridin-2-yl)-2,9-diazaspiro[5.5]undecan-9-yl)ethyl)-4-methylisobenzofuran-1(3H)-one] was tested. Which IC50 [1] did it give?
A: 0.056 µM

Q: Which IC50 [1] does the source give for `Cc1c(CCN2CCC3(CC2)CC(=O)N(c2ccc(C#N)cn2)C3)ccc2c1COC2=O` [Example 4, 6-(8-(2-(4-methyl-1-oxo-1,3-dihydroisobenzofuran-5-yl)ethyl)-3-oxo-2,8-diazaspiro[4.5]decan-2-yl)nicotinonitrile] here?
A: 0.012 µM

Q: `Cc1c([C@@H](O)CN2CCC3(CC2)CN(c2ccc(C#N)cn2)C3=O)ccc2c1COC2=O` [Example 44, (R)-6-(7-(2-Hydroxy-2-(4-methyl-1-oxo-1,3-dihydroisobenzofuran-5-yl)ethyl)-1-oxo-2,7-diazaspiro[3.5]nonan-2-yl)nicotinonitrile] was tested. Which IC50 [1] did it give?
A: 0.369 µM

Q: With `Cc1c([C@@H](O)CN2CCC3(CC2)CCN(c2cc(C#N)ccc2F)C3)ccc2c1COC2=O` [Example 84] as the compound, how does the IC50 [1] read?
A: 0.255 µM

Q: How did the IC50 [1] turn out when `Cc1c([C@@H](O)CN2CCC3(CC2)CCN(c2ncc(C#N)s2)C3)ccc2c1COC2=O` [Example 90] was run?
A: 0.0067 µM

Q: Which IC50 [1] does the source give for `Cc1nc(N2CCC3(CCN(C[C@H](O)c4ccc5c(c4C)COC5=O)CC3)C2)ccc1S(C)(=O)=O` [Example 36, (R)-5-(1-Hydroxy-2-(2-(6-methyl-5-(methylsulfonyl)pyridin-2-yl)-2,8-diazaspiro[4.5]decan-8-yl)ethyl)-4-methylisobenzofuran-1(3H)-one] here?
A: 0.0757 µM

Q: With `Cc1c([C@@H](O)CN2CCC3(CC2)CC(=O)N(c2ccc(C#N)cn2)C3)ccc2c1COC2=O` [Example 1, (R)-6-(8-(2-hydroxy-2-(4-methyl-1-oxo-1,3-dihydroisobenzofuran-5-yl)ethyl)-3-oxo-2,8-diazaspiro[4.5]decan-2-yl)nicotinonitrile] as the compound, how does the IC50 [1] read?
A: 0.0105 µM

Q: How did the IC50 [1] turn out when `Cc1c(C(O)CN2CCC3(CC2)CCN(c2ncc(C#N)cc2F)CC3)ccc2c1COC2=O` (stereo not shown) [Example 113] was run?
A: 0.473 µM

Q: With `Cc1c([C@@H](O)CN2CCC3(CC2)CCN(c2ccc(C#N)cn2)CC3)ccc2c1COC2=O` [Example 104] as the compound, how does the IC50 read?
A: 0.026 µM

Q: `Cc1c([C@@H](O)CN2CCC3(CC2)CC(=O)N(c2cnc(S(C)(=O)=O)cn2)C3)ccc2c1COC2=O` [Example 35, (R)-8-(2Hydroxy-2-(4-methyl-1-oxo-1,3-dihydroisobenzofuran-5-yl)ethyl)-2-(5-(methylsulfonyl)pyrazin-2-yl)-2,8-diazaspiro[4.5]decan-3-one] was tested. Which IC50 [1] did it give?
A: 0.0742 µM

Q: Which IC50 [1] does the source give for `Cc1c([C@H](O)CN2CCC3(CC2)CCN(c2ccc(S(C)(=O)=O)cn2)C3)ccc2c1COC2=O` [Example 56, (S)-5-(1-Hydroxy-2-(2-(5-(methylsulfonyl)pyridin-2-yl)-2,8-diazaspiro[4.5]decan-8-yl)ethyl)-4-methylisobenzofuran-1(3H)-one] here?
A: 0.341 µM

Q: How did the IC50 [1] turn out when `COc1cc(N2CC3(CCN(C[C@H](O)c4ccc5c(c4C)COC5=O)CC3)C2)ncc1C#N` [Example 50, (R)-6-(7-(2-hydroxy-2-(4-methyl-1-oxo-1,3-dihydroisobenzofuran-5-yl)ethyl)-2,7-diazaspiro[3.5]nonan-2-yl)-4-methoxynicotinonitrile] was run?
A: 0.0424 µM

Q: `CCS(=O)(=O)c1cnc(N2CCC3(CCN(C[C@H](O)c4ccc5c(c4C)COC5=O)CC3)C2)cn1` [Example 63, 5-[(1R)-2-{2-[5-(Ethylsulfonyl)pyrazin-2-yl]-2,8-diazaspiro[4.5]dec-8-yl}-1-hydroxyethyl]-4-methyl-2-benzofuran-1(3H)-one hydrochloride] was tested. Which IC50 [1] did it give?
A: 0.0833 µM

Q: For `COc1cc(N2CC3(CCN(C[C@H](O)c4ccc5c(c4C)COC5=O)CC3)OC2=O)ncc1C#N` [Example 95, (R)-6-(8-(2-Hydroxy-2-(4-methyl-1-oxo-1,3-dihydroisobenzofuran-5-yl)ethyl)-2-oxo-1-oxa-3,8-diazaspiro[4.5]decan-3-yl)-4-methoxynicotinonitrile], which IC50 [1] is on record?
A: 0.084 µM

Q: For `COc1cc(N2CC3(CCN(C[C@H](O)c4ccc5c(c4C)COC5=O)CC3)CC2=O)ncc1C#N` [Example 59, (R)-6-(8-(2-Hydroxy-2-(4-methyl-1-oxo-1,3-dihydroisobenzofuran-5-yl)ethyl)-3-oxo-2,8-diazaspiro[4.5]decan-2-yl)-4-methoxynicotinonitrile], which IC50 [1] is on record?
A: 0.0329 µM

Q: With `C[C@@H]1Cc2cc(C(O)CN3CCC4(CC3)CN(c3ccc(C#N)cn3)C4)ccc2C(=O)O1` (stereo partly drawn) [Example 52B, 6-(7-(2-Hydroxy-2-((R)-3-methyl-1-oxoisochroman-6-yl)ethyl)-2,7-diazaspiro[3.5]nonan-2-yl)nicotinonitrile] as the compound, how does the IC50 [1] read?
A: 0.0699 µM

Q: Which IC50 [1] does the source give for `Cc1c([C@@H](O)CN2CCC3(CC2)CCN(c2cnc(S(C)(=O)=O)cn2)C3)ccc2c1COC2=O` [Example 33, (R)-5-(1-Hydroxy-2-(2-(5-(methylsulfonyl)pyrazin-2-yl)-2,8-diazaspiro[4.5]decan-8-yl)ethyl)-4-methylisobenzofuran-1(3H)-one] here?
A: 0.0441 µM

Q: With `Cc1c([C@@H](O)CN2CCC3(CC2)CN(c2ccc(S(C)(=O)=O)nc2)C3)ccc2c1COC2=O` [Example 46, (R)-5-(1-Hydroxy-2-(2-(6-(methylsulfonyl)pyridin-3-yl)-2,7-diazaspiro[3.5]nonan-7-yl)ethyl)-4-methylisobenzofuran-1(3H)-one] as the compound, how does the IC50 [1] read?
A: 0.256 µM
